US5030624A, “R-diastereomer of an N^6 -[(2-hydroxypropyl)aryl]adenosine and its medicinal uses” (G. D. Searle & Co., priority 1988, dated 1991)
“Also recorded” adds a separate entry of the source.

How the values were obtained:
[1] = system: plasma renin activity (PRA); experiment: Change in plasma renin activity (PRA) in the bilateral renal artery ligated rat; format: in vivo, rat (Sprague-Dawley); conditions: 1 mg/kg I.V.; for prevention of PRA increases / inhibition of renin release (in words): 30 and 60 minutes; for CHANGE IN PRA: ^+ different from vehicle, p < .05
Method: Adenosine Al receptor stimulation will inhibit the release of renin from the kidney. A stimulus for the release of renin is renal ischemia. The ability of the compounds of the present invention to prevent an increase in PRA following renal ischemia was tested in rats with both renal arteries ligated. Sprague-Dawley rats were anesthetized with ether and the renal arteries were ligated. Three to five hours after anesthesia, arterial blood was sampled and compounds I and II were administered in polyethylene glycol at 1 mg/kg I.V. At 30 and 60 minutes after administration, arterial blood was sampled for PRA measurement by the method of Sealy, J. E. et al., Cardiovasc. Med. 2:1079, 1977.

mice [2] = experiment: Behavioral toxicity at various times in mice; format: in vivo; as to MOTOR DEPRESSION: key: +: toxic symptom observed; +*: toxic symptom observed; *2/7; as to PTOSIS: key: +: toxic symptom observed; +*: toxic symptom observed; *2/7; as to RESPIRATORY DEPRESSION: key: +: toxic symptom observed; +*: toxic symptom observed; *2/7; as to loss of righting reflex: key: +: toxic symptom observed; +*: toxic symptom observed; *2/7
Method: The mice had previously been trained to remain on a rotating rod. After dosing, the percent of mice unable to remain on the rotating rod was determined. […] The mice were also observed at various time intervals for behavioral signs of toxicity.

[3] = system: adenosine Al receptor in the granular juxtaglomerular cells of the kidney; conditions: Federation Proceedings 44:879 & 1643, 1985; cited from earlier work
hypertensive models = conditions: Federation Proceedings 44:879 & 1643, 1985; cited from earlier work
[4] = system: spontaneously hypertensive rats (SHR); experiment: Effects on MAP and HR in conscious spontaneously hypertensive rats (SHR), I.V. or intragastric; format: in vivo, rat
Method: The effects of compounds I and II were tested intravenously or intragastrically in conscious spontaneously hypertensive rats (SHR). The rats were anesthetized with ether and the left carotid artery and right jugular vein were cannulated with polyethylene tubing. The rats were allowed three to five hours recovery from anesthesia for the I.V. studies and 12 to 18 hours for the oral studies. Mean arterial pressure (MAP, in mm/Hg) and heart rate (HR, beats/min.) were measured from the artery; intravenous administration of compounds was performed by injection into the vein. Oral administration was performed by gastric intubation. Compounds were dissolved in DMSO for I.V. studies and injected in volumes of 100 μl/kg or less (N=5 per compound). Doses were 3 to 1,000 μg/kg. Compounds were dissolved in polyethylene glycol for oral administration and injected in volumes of 1 ml/kg at a dose of 20 mg/kg/day for three days (N=3 to 6 per compound).
The resting MAP and HR for the SHR ranged between 160-200 mm Hg and 330/350 b/min., respectively.
Thus, the effects of the three compounds on MAP and HR were indistinguishable both by I.V. and oral administration.

mice [5] = experiment: Ataxia on rotating rod in mice; format: in vivo; conditions: ip, 0.5 or 3 hours
Method: Adenosine analogs tend to produce sedation and central nervous system depression which have prevented their therapeutic utility. The compounds of the invention, at doses which lower arterial pressure in the SHR, show no evidence of CNS depression. The ataxia produced by compounds of the present invention was measured in mice by injecting the compounds IP at doses of 32, 56, or 75 mg/kg in an aqueous suspension, n=7 per dose. The mice had previously been trained to remain on a rotating rod. After dosing, the percent of mice unable to remain on the rotating rod was determined. […] The mice were also observed at various time intervals for behavioral signs of toxicity.

[6] = Solubility of the separated diastereomers; format: physicochemical; conditions: for solubility in MeOH (in words): S isomer and R isomer compared
[7] = SHR, 20 mg/kg/day intragastric, day 2 of oral administration, N=3 to 6

Row | SMILES | prevention of PRA increases / inhibition of renin release (in words) [1] | toxicity (in words) (mice [2]; 18-20 hours, 75 mg/kg ip) | MOTOR DEPRESSION (mice [2]; 0.5 hr, 75 mg/kg ip) | PTOSIS (mice [2]; 0.5 hr, 75 mg/kg ip) | RESPIRATORY DEPRESSION (mice [2]; 0.5 hr, 75 mg/kg ip) | MOTOR DEPRESSION (mice [2]; 3 hr, 75 mg/kg ip) | PTOSIS (mice [2]; 3 hr, 75 mg/kg ip) | RESPIRATORY DEPRESSION (mice [2]; 3 hr, 75 mg/kg ip) | solubility in MeOH (in words) [6] | further results
1 | OC[C@H]1O[C@@H](n2cnc3c(NCC(O)COc4cccc5ccccc45)ncnc32)[C@H](O)[C@@H]1O (mixture of isomers) [Compound I, N(6)-[2-hydroxy-3-(1-naphthyloxy)propyl]-adenosine] | prevented to the same extent | still producing several of the toxic symptoms | + | + | + | + | + | + | – | FLACCIDITY, animals affected (footnote) (mice [2]; 18-20 hr, 75 mg/kg ip): 2/7; MOTOR DEPRESSION (mice [2]; 18-20 hr, 75 mg/kg ip): +; PTOSIS (mice [2]; 18-20 hr, 75 mg/kg ip): +; RESPIRATORY DEPRESSION (mice [2]; 18-20 hr, 75 mg/kg ip): +; toxicity (in words) (mice [2]; 3 hours, 75 mg/kg ip): flaccidity and loss of righting reflex; FLACCIDITY (mice [2]; 3 hr, 75 mg/kg ip): +; LOSS OF RIGHTING REFLEX (mice [2]; 3 hr, 75 mg/kg ip): +; binding to the adenosine Al receptor, inhibition of renin release (in words) [3]: binds to the adenosine Al receptor in the granular juxtaglomerular cells of the kidney to inhibit release of renin into the plasma; arterial blood pressure and heart rate (in words) (hypertensive models): reducing arterial blood pressure and heart rate in hypertensive models
2 | OC[C@H]1O[C@@H](n2cnc3c(NC[C@@H](O)COc4cccc5ccccc45)ncnc32)[C@H](O)[C@@H]1O [Compound II, N^6-[2R-hydroxy-3-(1-naphthalenyloxy)propyl]-adenosine] | prevented to the same extent | no toxicity was observed | + | + | + | + | + | + | more soluble in MeOH | ED (HR decrease by 100 b/min) ([4]; Rattus norvegicus, iv, conscious SHR, I.V. in DMSO, N=5 per compound, read-out: IV DOSE TO DECREASE HR by 100 b/min): 0.031 ± 0.0014 mg/kg; ED (MAP decrease by 40 mmHg) ([4]; Rattus norvegicus, iv, conscious SHR, I.V. in DMSO, N=5 per compound, read-out: IV DOSE TO DECREASE MAP by 40 mmHg): 0.033 ± 0.0012 mg/kg; MAXIMUM DECREASE AT 20 MG/KG ig: HR [4, 7]: 177 ± 19 b/min; MAXIMUM DECREASE AT 20 MG/KG ig: MAP [4, 7]: 50 ± 14 mmHg; CHANGE IN PRA ([1]; 30 minutes after dosing): -6.6 ngAI/ml/hr; CHANGE IN PRA ([1]; 60 minutes after dosing): -6.3 ngAI/ml/hr; ataxia / motor toxicity (in words) (mice [5]): less ataxia at 0.5 or 3 hours as compared to compound I; also recorded: less motor toxicity than compound I; overall toxicity compared with compound I (in words) (mice [2]; mice, ip, ataxia and behavioral toxicity): substantially less toxic than compound I; also recorded: unexpectedly less toxic than compound I, both with regard to ataxia and behavioral toxicity; also recorded: less central nervous system toxicity than the racemic mixture; solubility (in words) ([6]; R diastereomer, solvent not stated): different solubility
3 | OC[C@H]1O[C@@H](n2cnc3c(NC[C@H](O)COc4cccc5ccccc45)ncnc32)[C@H](O)[C@@H]1O [S isomer] | – | – | – | – | – | – | – | – | less soluble in MeOH | –
